Assay results from BigSolDB 2.1.

Conditions: in water

O=C(O)CCCCCCC(=O)O
Conditions	solubility (mole fraction)
280.15 K	9.55e-05
285.85 K	0.000128
291.85 K	0.000177
298.15 K	0.00025
305.65 K	0.000341
307.65 K	0.000369
313.15 K	0.00042
317.65 K	0.000485
323.35 K	0.000579
325.85 K	0.00064
334.65 K	0.00101
337.15 K	0.00117
343.25 K	0.00149
349.65 K	0.00212

O=C(O)CCCCCCCC(=O)O
Conditions	solubility (mole fraction)
280.15 K	5.94e-05
285.85 K	8.13e-05
291.85 K	0.000117
298.15 K	0.000171
307.85 K	0.000287
316.15 K	0.000336
325.75 K	0.000481
330.15 K	0.0007
334.65 K	0.000931
338.15 K	0.00128
344.15 K	0.00132
347.65 K	0.00153
353.05 K	0.00191
357.65 K	0.00173

CC(=O)CCC(=O)O
Conditions	solubility (mole fraction)
280.15 K	0.18
283.15 K	0.214
287.65 K	0.278
293.95 K	0.374
298.15 K	0.448
303.25 K	0.519

O=C(O)COCC(=O)O
Conditions	solubility (mole fraction)
278.25 K	0.0365
284.15 K	0.0469
288.75 K	0.0686
293.75 K	0.0748
296.65 K	0.0823
301.25 K	0.104
310.65 K	0.128
313.15 K	0.139
321.15 K	0.161
323.15 K	0.167
327.65 K	0.188
332.65 K	0.205
338.15 K	0.22
343.15 K	0.239
348.15 K	0.254
353.05 K	0.268
357.15 K	0.284
361.35 K	0.295
